Experimental data reported in patent publication US20090247576A1, “ANTI-TUMOR AGENT FOR MULTIPLE MYELOMA” (Eisai R & D Management Co., Ltd., priority 2005, published 2009).

Target: T1, FGFR3 kinase (human recombinant GST fusion protein) (Homo sapiens, UniProt P22607)
T1 construct: GST; host or cells: Sf9 insect cells, baculovirus
Test: FGFR3 cell free kinase assay (33P-ATP incorporation, FlashPlate, ProQinase)
Type: biochemical
Details: test substance: methanesulfonate; 1 μM [γ-33P]-ATP; substrate biotinylated Poly(Glu, Tyr)4:1; 30° C., 80 minutes; 10 points from 10 μM to 0.0003 μM; read-out: FGFR3 kinase-inhibiting activity (IC50)
Description: A FGFR3-inhibiting activity of 4-(3-chloro-4-(cyclopropylaminocarbonyl)aminophenoxy)-7-methoxy-6-quinolinecarbox amide was examined by ProQinase (Freiburg, GmbH) on our request. Specifically, the FGFR3-inhibiting activity was determined as follows. FGFR3 kinase was expressed in an insect cell (Spondoptea frugiperda 9 (Sf9)) as human recombinant GST fusion protein by the method of Baculovirus Expression System. The expressed recombinant protein was purified by affinity chromatography using GSH-agarose (from Sigma) or Ni-NTH-agarose (from Qiagen). The purity and identification of the protein were confirmed by SDS-PAGE, silver staining and western blotting using an antibody specific to FGFR3 kinase. Kinase assay was carried out as follows. […] The amount of ^33Pi incorporation was assessed by determining the radioactivity on the plate with a microplate scintillation counter (from Microbeta, Wallac). […] The kinase activity in the presence of the test substance at each concentration was assessed as percentage of the value obtained by subtracting the 0% value from the radioactivity value to the value obtained by subtracting the 0% value from the 100% value.

T1 sequence (P22607 23-806): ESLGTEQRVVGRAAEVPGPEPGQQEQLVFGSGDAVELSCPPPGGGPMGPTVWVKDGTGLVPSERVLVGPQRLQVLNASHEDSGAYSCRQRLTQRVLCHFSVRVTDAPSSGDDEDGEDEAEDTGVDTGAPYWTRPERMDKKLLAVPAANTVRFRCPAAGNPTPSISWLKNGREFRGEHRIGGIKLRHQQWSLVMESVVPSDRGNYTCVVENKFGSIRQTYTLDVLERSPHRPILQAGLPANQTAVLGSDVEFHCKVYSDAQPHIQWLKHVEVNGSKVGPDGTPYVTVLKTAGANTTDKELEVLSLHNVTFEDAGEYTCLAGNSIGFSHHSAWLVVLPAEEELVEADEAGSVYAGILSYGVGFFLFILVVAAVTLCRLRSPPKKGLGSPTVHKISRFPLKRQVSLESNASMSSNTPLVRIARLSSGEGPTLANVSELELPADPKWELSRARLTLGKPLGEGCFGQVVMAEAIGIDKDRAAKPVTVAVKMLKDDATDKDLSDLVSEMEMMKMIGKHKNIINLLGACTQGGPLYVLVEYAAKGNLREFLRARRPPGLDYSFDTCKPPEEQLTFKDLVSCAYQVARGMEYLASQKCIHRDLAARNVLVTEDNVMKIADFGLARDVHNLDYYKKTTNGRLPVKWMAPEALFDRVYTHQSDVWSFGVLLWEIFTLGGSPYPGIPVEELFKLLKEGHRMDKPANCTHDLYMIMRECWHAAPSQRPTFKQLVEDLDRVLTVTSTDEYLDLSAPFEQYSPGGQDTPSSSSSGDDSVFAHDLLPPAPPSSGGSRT

IC50: 140 nM
SMILES: COc1cc2nccc(Oc3ccc(NC(=O)NC4CC4)c(Cl)c3)c2cc1C(N)=O [4-(3-chloro-4-(cyclopropylaminocarbonyl)aminophenoxy)-7-methoxy-6-quinolinecarbox amide]
